Experimental data published in patent publication US10941157B2, “Pesticidal compositions and uses thereof” (Gilead Apollo, LLC, priority 2015, dated 2021).
Values after ≈ are worked out from the molar mass of the structure shown. Read-outs that look alike come from different tables or passages of the source.

Tests used:
Puccinia triticina = experiment: Foliar protection test for wheat leaf rust control; type: in vivo; details: foliar application to wheat (Triticum aestivum cv. Winterhawk), evaluated 10 days later
Phakopsora pachyrhizi = experiment: Foliar protection test for Asian soybean rust control; type: in vivo; details: foliar application to soybean (Glycine max AG4832), percent disease area evaluated 14 days later
[1] = test system: Collectotrichum graminicola (Cg); experiment: In vitro pathogen growth inhibition assay, Cg; type: cell-based; details: 48 h
Method in brief: (§1)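 Value reported is the compound concentration reaching ≥90% growth inhibition, from OD readings at 24 and 48 h after blank subtraction, confirmed visually. Inoculum was spores diluted in 17% V8 medium, except Rs, using 1.5 mm mycelial plugs in ¼ PDB; actual compound concentration corrected via OD600.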

Diplodia maydis (Dm) = experiment: In vitro pathogen growth inhibition assay, Dm; type: cell-based; details: Stenocarpella maydis, 48 h
Method in brief: (§2)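 Spores in 17% V8 liquid medium, or 1.5 mm Rs mycelial plugs in ¼ PDB, incubated with compound; final concentration checked by OD600 for precipitation. OD readings at 24 and 48 h, blank-subtracted, plus visual ratings; value is concentration giving ≥90% growth inhibition.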

Rhizoctonia solani (Rs) = experiment: In vitro pathogen growth inhibition assay, Rs (mycelial plugs); type: cell-based; details: Rhizoctonia solani, 48 h, mycelial plugs
Method in brief: as §2

[2] = test system: Fusarium moniliforme (Fm); experiment: In vitro pathogen growth inhibition assay, Fm; type: cell-based; details: Fusarium verticillioides
Method in brief: as §1

[3] = test system: Blumeria graminis f. sp. hordei; experiment: Foliar protection test for barley powdery mildew control; type: in vivo; details: foliar spray on Hordeum vulgare cv. Perry, inoculated 24 hours after treatment, evaluated 7 days later
Description: Plants (Hordeum vulgare cv. Perry) were grown for 6 days in 2-inch square pots containing Metromix 200 medium amended with fertilizer. […] After inoculation with the pathogen of Blumeria graminis f. sp. hordei, plants were kept at conditions of 20 to 22° C., 70% relative humidity, and 200 uM of light to facilitate infection and disease development. […] An atomizer was used for applying the solution onto both sides of the leaves until thoroughly wetted. […] At 24 hours after treatment, the plants were moved to a cooler chamber and inoculated by shaking well-colonized, untreated stock plants above the treated plants. This allowed producing a settling cloud of spores and resulting in uniform infection. Efficacy was evaluated in 7 days later by examining leaves for colonization and growth of mildew. Table 4 lists the results of barley powdery mildew control at a compound concentration of 10 ppm or lower.

Fusarium graminearum = type: in vivo; details: spray on flowering Triticum aestivum cv. Samson, inoculated 24 hours after treatment, evaluated 14 days later
Septoria tritici (St) = experiment: In vitro pathogen growth inhibition assay, St; type: cell-based; details: Zymoseptoria tritici, 48 h
Method in brief: as §1

[4] = test system: Phytophthora capsici (Pc); experiment: In vitro pathogen growth inhibition assay, Pc; type: cell-based; details: 48 h
Method in brief: as §2

Botrtyis cinerea (Bc) = experiment: In vitro pathogen growth inhibition assay, Bc; type: cell-based; details: 48 h
Method in brief: as §1

[5] = test system: Fusarium virguliforme (Fv); experiment: In vitro pathogen growth inhibition assay, Fv; type: cell-based; details: ≥90% inhibition, 48 hours vs 2% DMSO control, read-out: Compound Concentration (ppm) sufficient for ≥90% inhibition of growth, Fv
Method in brief: as §2

Sphaerotheca fuliginea = experiment: Foliar protection for cucumber powdery mildew control; type: in vivo; details: foliar spray on Cucumis sativus cv. Straight Eight, inoculated 24 hours after treatment, evaluated 7 days later
Description: Plants (Cucumis sativus cv. Straight Eight) were grown for 10 days in 2.5-inch square pots containing Metromix 200 medium amended with fertilizer. For propagation, plants were maintained in a growth chamber at conditions of 23 to 27° C., 16 hour light cycle, ambient humidity, and with sub-irrigation as needed. After inoculation with the pathogen of Sphaerotheca fuliginea, plants were kept at conditions of 23 to 27° C., 16 hour light cycle, 60% relative humidity, and with sub-irrigation as needed to facilitate infection and disease development. […] An atomizer was used for applying the solution onto both sides of the leaves until thoroughly wetted. […] At 24 hours after treatment, the plants were moved to a cooler chamber and inoculated by shaking well-colonized, untreated stock plants above the treated plants. This allowed producing a settling cloud of spores and resulting in uniform infection. Inoculated plants were kept near other sporulating stock plants to allow for infection of newly emerging leaves. Efficacy was evaluated in 7 days later by examining leaves for colonization and growth of mildew. Table 5 lists the results of cucumber powdery mildew control at a compound concentration of 10 ppm or lower.

[6] = test system: Mycosphaerella graminicola (synthetic Septoria tritici); experiment: Foliar protection test for wheat septoria leaf blotch control; type: in vivo; details: foliar spray on Triticum aestivum cv. WinterHawk, inoculated 1 hour after treatment, evaluated 16 days later
[7] = ≥90% inhibition, 48 hours vs 2% DMSO control, read-out: Compound Concentration (ppm) sufficient for ≥90% inhibition of growth, Cg
[8] = ≥90% inhibition, 48 hours vs 2% DMSO control, read-out: Compound Concentration (ppm) sufficient for ≥90% inhibition of growth, Dm
[9] = ≥90% inhibition, 48 hours vs 2% DMSO control, read-out: Compound Concentration (ppm) sufficient for ≥90% inhibition of growth, Rs
[10] = ≥90% inhibition, 48 hours vs 2% DMSO control, read-out: Compound Concentration (ppm) sufficient for ≥90% inhibition of growth, Fm
[11] = ≥90% inhibition, 48 hours vs 2% DMSO control, read-out: Compound Concentration (ppm) sufficient for ≥90% inhibition of growth, St
[12] = ≥90% inhibition, 48 hours vs 2% DMSO control, read-out: Compound Concentration (ppm) sufficient for ≥90% inhibition of growth, Pc
[13] = ≥90% inhibition, 48 hours vs 2% DMSO control, read-out: Compound Concentration (ppm) sufficient for ≥90% inhibition of growth, Bc

## COc1ccc(F)cc1[C@H](Cn1c(=O)n(C(C)(C)C(=O)NC(C)C)c(=O)c2c(C)c(-n3nccn3)sc21)OC1CCOCC1 [Compound I-030, (R)-2-(1-(2-(5-fluoro-2-methoxyphenyl)-2-((tetrahydro-2H-pyran-4-yl)oxy)ethyl)-5-methyl-2,4-dioxo-6-(2H-1,2,3-triazol-2-yl)-1,4-dihydrothieno[2,3-d]pyrimidin-3 (2H)-yl)-N-isopropyl-2-methylpropanamide]
Puccinia triticina
  Wheat Leaf Rust Control at a compound concentration of 10 ppm or lower: AA (≥85% control of wheat leaf rust)
Phakopsora pachyrhizi
  Asian Soybean Rust Control at a compound concentration of 25 ppm or lower: A (from 70% to 84% control of Asian soybean rust)
[1]; [7]
  IC90: 0.4 µg/mL (≈ 0.636 µM)
Diplodia maydis (Dm); [8]
  IC90: ≥ 0.4 µg/mL
Rhizoctonia solani (Rs); [9]
  IC90: 0.08 µg/mL (≈ 0.127 µM)
[2]; [10]
  IC90: 0.08 µg/mL (≈ 0.127 µM)
[3]
  Barley Powdery Mildew Control at a compound concentration of 10 ppm or lower: AA (≥85% control of barley powdery mildew)
Fusarium graminearum
  Wheat Fusarium Head Blight Control at a compound concentration of 25 ppm or lower: B (from 50 to 69% control of wheat fusarium head blight)
Septoria tritici (St); [11]
  IC90: ≥ 2 µg/mL
[4]; [12]
  IC90: 50 µg/mL (≈ 79.5 µM)
Botrtyis cinerea (Bc); [13]
  IC90: 0.4 µg/mL (≈ 0.636 µM)
[5]
  IC90: 0.4 µg/mL (≈ 0.636 µM)
Sphaerotheca fuliginea
  Cucumber Powdery Mildew Control at a compound concentration of 10 ppm or lower: AA (≥85% control of cucumber powdery mildew)
[6]
  Septoria Leaf Blotch Control at a compound concentration of 25 ppm or lower: B (from 50 to 69% control of wheat septoria leaf blotch)

## COc1ccccc1[C@H](Cn1c(=O)n(C(C)(C)C(=O)N2CCCC2)c(=O)c2c(C)c(-n3nccn3)sc21)OC1CCOCC1 [Compound I-034, (R)-1-(2-(2-methoxyphenyl)-2-((tetrahydro-2H-pyran-4-yl)oxy)ethyl)-5-methyl-3-(2-methyl-1-oxo-1-(pyrrolidin-1-yl)propan-2-yl)-6-(2H-1,2,3-triazol-2-yl)thieno[2,3-d]pyrimidine-2,4(1H,3H)-dione]
Puccinia triticina
  Wheat Leaf Rust Control at a compound concentration of 10 ppm or lower: AA (≥85% control of wheat leaf rust)
Phakopsora pachyrhizi
  Asian Soybean Rust Control at a compound concentration of 25 ppm or lower: AA (≥85% control of Asian soybean rust)
[1]; [7]
  IC90: ≥ 0.4 µg/mL
Diplodia maydis (Dm); [8]
  IC90: ≥ 0.4 µg/mL
Rhizoctonia solani (Rs); [9]
  IC90: 0.08 µg/mL (≈ 0.128 µM)
[2]; [10]
  IC90: 0.08 µg/mL (≈ 0.128 µM)
[3]
  Barley Powdery Mildew Control at a compound concentration of 10 ppm or lower: AA (≥85% control of barley powdery mildew)
Fusarium graminearum
  Wheat Fusarium Head Blight Control at a compound concentration of 25 ppm or lower: C (from 25 to 49% control of wheat fusarium head blight)
Septoria tritici (St); [11]
  IC90: ≥ 2 µg/mL
[4]; [12]
  IC90: ≥ 10 µg/mL
Botrtyis cinerea (Bc); [13]
  IC90: 0.4 µg/mL (≈ 0.642 µM)
[5]
  IC90: 0.4 µg/mL (≈ 0.642 µM)
Sphaerotheca fuliginea
  Cucumber Powdery Mildew Control at a compound concentration of 10 ppm or lower: AA (≥85% control of cucumber powdery mildew)
[6]
  Septoria Leaf Blotch Control at a compound concentration of 25 ppm or lower: B (from 50 to 69% control of wheat septoria leaf blotch)

## COCCO[C@@H](Cn1c(=O)n(C(C)C(=O)NC(C)C)c(=O)c2c(C)c(-n3nccn3)sc21)c1cc(F)ccc1OC (stereo partly drawn) [Compound I-082, 2-(1-((R)-2-(5-fluoro-2-methoxyphenyl)-2-(2-methoxyethoxy)ethyl)-5-methyl-2,4-dioxo-6-(2H-1,2,3-triazol-2-yl)-1,4-dihydrothieno[2,3-d]pyrimidin-3 (2H)-yl)-N-isopropylpropanamide]
Puccinia triticina
  Wheat Leaf Rust Control at a compound concentration of 10 ppm or lower: B (from 50 to 69% control of wheat leaf rust)
Phakopsora pachyrhizi
  Asian Soybean Rust Control at a compound concentration of 25 ppm or lower: B (from 50 to 69% control of Asian soybean rust)
[1]; [7]
  IC90: 0.4 µg/mL (≈ 0.68 µM)
Diplodia maydis (Dm); [8]
  IC90: 0.4 µg/mL (≈ 0.68 µM)
Rhizoctonia solani (Rs); [9]
  IC90: 0.24 µg/mL (≈ 0.408 µM)
[2]; [10]
  IC90: 0.08 µg/mL (≈ 0.136 µM)
[3]
  Barley Powdery Mildew Control at a compound concentration of 10 ppm or lower: AA (≥85% control of barley powdery mildew)
Fusarium graminearum
  Wheat Fusarium Head Blight Control at a compound concentration of 25 ppm or lower: C (from 25 to 49% control of wheat fusarium head blight)
Septoria tritici (St); [11]
  IC90: 30 µg/mL (≈ 51 µM)
[4]; [12]
  IC90: 10 µg/mL (≈ 17 µM)
Botrtyis cinerea (Bc); [13]
  IC90: 2 µg/mL (≈ 3.4 µM)
[5]
  IC90: 0.4 µg/mL (≈ 0.68 µM)
Sphaerotheca fuliginea
  Cucumber Powdery Mildew Control at a compound concentration of 10 ppm or lower: AA (≥85% control of cucumber powdery mildew)
[6]
  Septoria Leaf Blotch Control at a compound concentration of 25 ppm or lower: AA (≥85% control of wheat septoria leaf blotch)

## COCCO[C@@H](Cn1c(=O)n([C@H](C)C(=O)NC(C)C)c(=O)c2c(C)c(-n3cccn3)sc21)c1cc(F)ccc1OC [Compound I-310, (R)-2-(1-((R)-2-(5-fluoro-2-methoxyphenyl)-2-(2-methoxyethoxy)ethyl)-5-methyl-2,4-dioxo-6-(1H-pyrazol-1-yl)-1,4-dihydrothieno[2,3-d]pyrimidin-3 (2H)-yl)-N-isopropylpropanamide]
Puccinia triticina
  Wheat Leaf Rust Control at a compound concentration of 10 ppm or lower: C (from 25 to 49% control of wheat leaf rust)
Phakopsora pachyrhizi
  Asian Soybean Rust Control at a compound concentration of 25 ppm or lower: C (from 25 to 49% control of Asian soybean rust)
[1]; ≥90% growth inhibition, 48 hours, vs 2% DMSO control, read-out: Compound Concentration (ppm) sufficient for ≥90% inhibition of Cg
  IC90: 2 µg/mL (≈ 3.4 µM)
Diplodia maydis (Dm); ≥90% growth inhibition, 48 hours, vs 2% DMSO control, read-out: Compound Concentration (ppm) sufficient for ≥90% inhibition of Dm
  IC90: ≥ 2 µg/mL
Rhizoctonia solani (Rs); ≥90% growth inhibition, 48 hours, vs 2% DMSO control, read-out: Compound Concentration (ppm) sufficient for ≥90% inhibition of Rs
  IC90: 0.08 µg/mL (≈ 0.136 µM)
[2]; ≥90% growth inhibition, 48 hours, vs 2% DMSO control, read-out: Compound Concentration (ppm) sufficient for ≥90% inhibition of Fm
  IC90: 0.08 µg/mL (≈ 0.136 µM)
[3]
  Barley Powdery Mildew Control at a compound concentration of 10 ppm or lower: AA (≥85% control of barley powdery mildew)
Fusarium graminearum
  Wheat Fusarium Head Blight Control at a compound concentration of 25 ppm or lower: C (from 25 to 49% control of wheat fusarium head blight)
Septoria tritici (St); ≥90% growth inhibition, 48 hours, vs 2% DMSO control, read-out: Compound Concentration (ppm) sufficient for ≥90% inhibition of St
  IC90: > 50 µg/mL
[4]; ≥90% growth inhibition, 48 hours, vs 2% DMSO control, read-out: Compound Concentration (ppm) sufficient for ≥90% inhibition of Pc
  IC90: > 50 µg/mL
Botrtyis cinerea (Bc); ≥90% growth inhibition, 48 hours, vs 2% DMSO control, read-out: Compound Concentration (ppm) sufficient for ≥90% inhibition of Bc
  IC90: 2 µg/mL (≈ 3.4 µM)
Sphaerotheca fuliginea
  Cucumber Powdery Mildew Control at a compound concentration of 10 ppm or lower: AA (≥85% control of cucumber powdery mildew)
[6]
  Septoria Leaf Blotch Control at a compound concentration of 25 ppm or lower: B (from 50 to 69% control of wheat septoria leaf blotch)
